Measured values taken from PubChem BioAssay AID179 (DTP/NCI, 2004).
Activity calls are given as the source filed them.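 Rule for the calls: active = compounds giving half or more protection of infected cells from virus-caused growth loss, again on retest; inactive = the rest.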 Where a SMILES comes first, the peptide text is derived from it. The star is where a group is joined. Boc = CC(C)(C)OC(=O)*

Tested on: CEM cells HIV-1 protection, formazan growth assay
Assay: NCI AIDS Antiviral Assay
Details: for IC50: measured here: growth of uninfected CEM cells
Procedure, shortened: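 Steps: treat uninfected and HIV-1-infected human CEM cells at five drug levels; quantify growth by soluble formazan; retest any compound reaching 50% protection; classify actives from the retest.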

Compound	EC50 [µM]	IC50 [µM]	outcome
NC(N)=N/N=C/c1c[nH]c2ccccc12	> 955	55	
Cc1cccc(NC(=O)Nc2cccc(Cl)c2Cl)n1	> 200	> 200	
CC(O)c1ccc2c(c1)C(O)C[C@H]1[C@](C)(CO)CCC[C@]21C (some centres not stated)	> 200	141	
CC(=O)[CH-]C(C)=O.CC(=O)[CH-]C(C)=O.COc1cc2cc(C(=O)N3CC(CCl)c4ccc(NCCN)cc43)[nH]c2c(OC)c1OC.[Cr+5].[O-][Cl+3]([O-])([O-])[O-] (configuration not stated)	> 1	0.479	
O=C1CCCCCCCCCCC1CCCCCBr (configuration not stated)	> 200	57.5	
Cc1ccc(S(=O)(=O)N2CCn3ncc(C#N)c32)cc1	> 186	> 186	
Cc1cc(NS(=O)(=O)c2ccc(Nc3c4ccccc4nc4ccc(C(=O)Nc5ccc(S(=O)(=O)N=C(N)N)cc5)cc34)cc2)no1	> 200	110	
Cc1cccc2c1c(=O)c1c(O)c3c(cc1n2C)OC(C)(C)C=C3	> 200	87.1	
Clc1cccc(NC2=NCCN=C(Nc3cccc(Cl)c3)SS2)c1			inactive
CN1CN(c2ccccc2)C2(CCN(Cc3nc4ccccc4s3)CC2)C1=O	> 200	30.9	
COC(=O)c1c2c(c(-c3ccccc3)c3c1-c1nc(Cl)ccc1CC3)CCc1ccc(Cl)nc1-2	> 20.4	> 20.4	
CN(C)P(=O)(N(C)C)N(C)C	> 200	> 200	
Nc1nc2c3nc(Nc4ccccc4)sc3nc(=S)n2c2sc(Nc3ccccc3)nc12	> 11	> 11	
C=C1CN(S(=O)(=O)c2ccc(C)cc2)CCCN(C2CCCC2)CCCN(S(=O)(=O)c2ccc(C)cc2)C1	> 200	4.07	
COc1ccc(C(c2c(O)c3ccccc3n(-c3ccccc3)c2=O)c2c(O)c3ccccc3n(-c3ccccc3)c2=O)cc1	> 8.71	> 8.71	
CCN(CC)CC(=O)Nc1cc(C)ccc1Cl	> 200	> 200	
O=C(Nc1ccc(/C=C/c2ccc(NC(=O)c3cc(S(=O)(=O)O)ccc3O)cc2S(=O)(=O)O)c(S(=O)(=O)O)c1)c1cc(S(=O)(=O)O)ccc1O	93.3	> 200	
O=C(Nc1ccc(S(=O)(=O)Nc2nccs2)cc1)c1cccnc1Nc1cccc(Cl)c1			inactive
O=NN1CCN=C1c1ccc([N+](=O)[O-])cc1	> 112	33.9	

Compound	EC50 [µM]	IC50 [µM]	outcome
CN(C)CCCCC1CCN(CC(=O)N2c3ccccc3NC(=O)c3ccccc32)CC1	> 302	155	
Cc1ccc2c(c1)SC(c1cc3c(cc1Br)OCO3)S2 (configuration not stated)	> 50.1	> 50.1	
CC(=O)OCC1OC(OC(C)=O)C(On2nnc3c(-c4ccccc4)c(C)nn32)C(OC(C)=O)C1OC(C)=O (configuration not stated)	> 60.3	31.6	
O=C1N2Cc3c4ccc5c3CN3C(=O)N6Cc7c(ccc(c7CN1C6(c1ccccc1)C23c1ccccc1)OCCOCCNCCOCCO4)OCCOCCNCCOCCO5 (configuration not stated)	> 6.03	> 6.03	
COc1ccc(/C=N/n2c(=O)[nH]c3ccccc3c2=O)cc1	> 200	> 200	
CC(=O)C(N=Nc1ccc(S(=O)(=O)Nc2ccccn2)cc1)C(=O)Nc1ccccc1C (configuration not stated)	> 200	4.57	
CC(=O)O/N=C(Cl)/C(Cl)=N/OC(C)=O			inactive
O=C1CCCC2=C1CC1=C(CCCC1=O)N2c1ccc(Cl)cc1	> 200	105	
COC1/C=C/OC2(C)Oc3c(C)c(O)c4c(O)c(cc(OCC(=O)N(C)CC(=O)OC(C)(C)C)c4c3C2=O)NC(=O)/C(C)=C/C=C/C(C)C(O)C(C)C(O)C(C)C(OC(C)=O)C1C (configuration not stated)	> 200	28.2	
COc1cc2oc3c(C)c(=O)cc4oc(-c5ccccc5)cc(c2c2c1CCC(c1ccccc1)O2)c43 (configuration not stated)	> 4.07	> 4.07	
O=C1c2ccccc2OP(=O)(OCC(F)(F)F)OC1(C(F)(F)F)C(F)(F)F (configuration not stated)	> 575	126	
CC(C)(Oc1ccc2c(=O)cc(-c3ccccc3)oc2c1)C(=O)Nc1c(Cl)cccc1Cl	> 11.2	> 11.2	
c1ccc(C2=C(c3ccccc3)/N=N/C(c3ccccc3)=C(c3ccccc3)\N=N\2)cc1	> 200	> 200	
O=C1CC(NC(=O)C(F)(F)F)c2c(Br)sc(N3CCNCC3)c21 (configuration not stated)	> 200	162	
CN1CCOC1(C)CO (configuration not stated)	> 200	> 200	
NN=C1/C(=C\c2ccccc2)CCC/C1=C/c1ccccc1	> 64.6	> 64.6	
Cc1cc(C)nc(NS(=O)(=O)c2ccc(N)cc2)n1	> 200	> 200	
COC(=O)C(Cc1c[nH]c2ccccc12)NC(=O)C(Cc1c[nH]c2ccccc12)NC(=O)C(Cc1c[nH]c2ccccc12)NC(=O)C(Cc1c[nH]c2ccccc12)NC(=O)C(Cc1c[nH]c2ccccc12)NC(=O)C(Cc1c[nH]c2ccccc12)NC(=O)C(Cc1c[nH]c2ccccc12)NC(=O)C(Cc1c[nH]c2ccccc12)NC(=O)OC(C)(C)C (configuration not stated) (Boc-WWWWWWWW-OMe; configuration not given here)	> 100	40.7	
CCC1=C(C[C@H]2NCCc3cc(OC)c(OC)cc32)C[C@H]2c3cc(OC)c(OC)cc3CCN2C1			inactive
